Laboratory results as given in patent publication US5281263A, “Azo dyes containing a carboxy group” (Imperial Chemical Industries PLC, priority 1991, dated 1994).
In brackets after ≈: the same amount, converted by molar mass.

How the values were obtained:
[1] = solubility of the dye in water; assay type: physicochemical
[2] = absorption of the dye: lambda max and E max; assay type: physicochemical

Row | solubility ([1]; temperature and pH not given) | E max [2] | lambda max [2] | solubility ([1]; 25° C., pH 9.5) | solubility ([1]; 25° C., pH 8.5) | solubility ([1]; 25° C.) | Compound
1 |  | about 24,500 | 558 nm | ~80 mg/mL (≈ 121 mM) |  |  | O=C(O)c1ccc(Nc2ccc3cc(S(=O)(=O)O)c(N=Nc4ccc(N=Nc5cccc(C(=O)O)c5)c5ccccc45)c(O)c3c2)cc1 [Example 1]
2 | ~80 mg/mL (≈ 121 mM) | about 23,500 | 553 nm |  |  |  | O=C(O)c1ccc(N=Nc2ccc(N=Nc3c(S(=O)(=O)O)cc4ccc(Nc5cccc(C(=O)O)c5)cc4c3O)c3ccccc23)cc1 [Example 3]

Second part, the molecule before the results:

Row | Compound | solubility ([1]; temperature and pH not given) | E max [2] | lambda max [2] | solubility ([1]; 25° C., pH 9.5) | solubility ([1]; 25° C., pH 8.5) | solubility ([1]; 25° C.)
3 | O=C(O)c1cccc(N=Nc2ccc(N=Nc3c(S(=O)(=O)O)cc4ccc(Nc5cccc(C(=O)O)c5)cc4c3O)c3cc(S(=O)(=O)O)ccc23)c1 [Example 6] | ~100 mg/mL (≈ 135 mM) | about 15,000 | 578 nm |  |  | 
4 | O=C(O)c1ccc(Nc2ccc3cc(S(=O)(=O)O)c(N=Nc4ccc(N=Nc5cccc(C(=O)O)c5)c5ccc(S(=O)(=O)O)cc45)c(O)c3c2)cc1 [Example 4] |  | about 24,000 | 588 nm |  | 130 to 150 mg/mL (≈ 175 to 202 mM) | 
5 | O=C(O)c1ccc(N=Nc2ccc(N=Nc3c(S(=O)(=O)O)cc4ccc(Nc5ccc(C(=O)O)cc5)cc4c3O)c3ccccc23)cc1 [Example 2] |  | about 22,000 | 567 nm |  |  | ~80 mg/mL (≈ 121 mM)
